# Data published in ChEMBL document CHEMBL1201862, “PubChem BioAssay data set” (2004).
# Calls of active or inactive are those of the source.
# Key:
# [1] = biological target: Nuclear receptor subfamily 5 group A member 2 (Homo sapiens, UniProt O00482); type: functional, cell-based;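 note: HEK293T cells transfected with LRH-1 and a StAR promoter luciferase reporter; potency for inhibitors that lower LRH-1 driven reporter light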
# Steroidogenic factor 1 = Steroidogenic factor 1 (Homo sapiens, UniProt Q13285); test: Counterscreen for inverse agonists of the liver receptor homolog-1 (LRH-1; NR5A2): Luminescence-based cell-based high throughput dose response assay to identify inverse agonists of the Steroidogenic Factor 1 Nuclear Receptor (SF1; NR5A1).; type: functional
# Sequence of Steroidogenic factor 1 (Q13285 whole entry): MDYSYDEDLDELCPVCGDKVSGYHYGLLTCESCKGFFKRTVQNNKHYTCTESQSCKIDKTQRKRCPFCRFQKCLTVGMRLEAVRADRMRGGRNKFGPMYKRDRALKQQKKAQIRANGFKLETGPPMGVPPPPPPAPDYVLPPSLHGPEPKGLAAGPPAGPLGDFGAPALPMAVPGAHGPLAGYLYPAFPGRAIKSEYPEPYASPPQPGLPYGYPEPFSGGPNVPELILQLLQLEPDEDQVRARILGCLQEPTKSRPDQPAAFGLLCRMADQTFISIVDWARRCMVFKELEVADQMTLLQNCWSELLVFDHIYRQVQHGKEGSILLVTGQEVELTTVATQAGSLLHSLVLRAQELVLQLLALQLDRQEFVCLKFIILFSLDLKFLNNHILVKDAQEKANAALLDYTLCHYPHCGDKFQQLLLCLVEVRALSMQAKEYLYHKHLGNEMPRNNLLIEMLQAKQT
# [2] = nonselective StAR promoter luciferase inhibitors – cell-based, luminescence, luciferase reporter, counter-screen for LRH-1 inverse agonist project, dose response (AID 651969); type: functional
# [3] = biological target: T1, Fructose-bisphosphate aldolase (Mycobacterium tuberculosis, UniProt P9WQA3); test: Fluorescence-based biochemical high throughput dose response assay for inhibitors of the fructose-bisphosphate aldolase (FBA) of M. tuberculosis.; type: functional
# T1 sequence (P9WQA3 whole entry): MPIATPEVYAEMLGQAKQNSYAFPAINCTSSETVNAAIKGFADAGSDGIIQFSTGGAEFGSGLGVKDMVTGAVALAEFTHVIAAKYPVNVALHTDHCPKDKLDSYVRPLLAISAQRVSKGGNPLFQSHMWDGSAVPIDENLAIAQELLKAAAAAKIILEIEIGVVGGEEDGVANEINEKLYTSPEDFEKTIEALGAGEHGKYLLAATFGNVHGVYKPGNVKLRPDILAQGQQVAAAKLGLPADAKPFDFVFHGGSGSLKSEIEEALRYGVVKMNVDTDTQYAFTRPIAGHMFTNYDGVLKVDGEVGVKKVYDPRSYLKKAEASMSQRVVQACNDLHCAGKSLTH
# [4] = biological target: T2, Methionyl-tRNA synthetase, putative (Trypanosoma brucei brucei, UniProt Q38C91); type: functional, Trypanosoma brucei brucei strain 927/4 GUTat10.1
# T2 sequence (Q38C91 whole entry): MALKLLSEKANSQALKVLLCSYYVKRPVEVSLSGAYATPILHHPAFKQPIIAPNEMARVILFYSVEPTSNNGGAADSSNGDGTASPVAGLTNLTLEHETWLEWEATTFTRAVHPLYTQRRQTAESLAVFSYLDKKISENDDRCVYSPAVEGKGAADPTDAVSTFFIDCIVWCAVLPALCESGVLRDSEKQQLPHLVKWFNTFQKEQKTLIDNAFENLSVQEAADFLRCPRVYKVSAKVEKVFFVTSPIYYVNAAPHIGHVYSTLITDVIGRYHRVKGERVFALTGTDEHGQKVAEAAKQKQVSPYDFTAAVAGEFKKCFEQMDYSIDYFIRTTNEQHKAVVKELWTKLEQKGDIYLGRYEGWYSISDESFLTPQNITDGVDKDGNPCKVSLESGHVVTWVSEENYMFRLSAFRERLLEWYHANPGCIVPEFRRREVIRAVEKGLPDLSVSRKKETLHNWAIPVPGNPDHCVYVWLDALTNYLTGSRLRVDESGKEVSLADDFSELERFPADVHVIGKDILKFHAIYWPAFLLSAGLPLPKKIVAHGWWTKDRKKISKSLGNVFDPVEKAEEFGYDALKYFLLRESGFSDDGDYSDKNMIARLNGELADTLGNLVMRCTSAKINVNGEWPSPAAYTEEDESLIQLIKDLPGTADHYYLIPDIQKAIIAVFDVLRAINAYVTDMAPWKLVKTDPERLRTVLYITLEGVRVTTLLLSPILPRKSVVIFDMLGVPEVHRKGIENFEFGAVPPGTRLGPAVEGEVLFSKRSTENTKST
# [5] = biological target: T2, Methionyl-tRNA synthetase, putative; type: functional, Trypanosoma brucei brucei strain 927/4 GUTat10.1; remark: listed apart in the source
# cells [6] = type: functional, cell-based
# [7] = Luminescence-based cell-based high throughput dose response assay to identify activators of the DAF-12 from the parasite S. stercoralis (ssDAF-12).; type: functional
# cells [8] = type: functional, cell-based; remark: listed apart in the source
# Paired box protein Pax-8 = Paired box protein Pax-8 (Homo sapiens, UniProt Q06710); test: PAX8 transcriptional activity inhibition in RMG-I – RMG-I cells, luciferase, cherry-pick, dose response (AID 687027); type: functional, cell-based;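 note: luciferase reporter driven by Pax8 target thyroperoxidase promoter measured by SteadyGlo luminescence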
# Sequence of Paired box protein Pax-8 (Q06710 whole entry): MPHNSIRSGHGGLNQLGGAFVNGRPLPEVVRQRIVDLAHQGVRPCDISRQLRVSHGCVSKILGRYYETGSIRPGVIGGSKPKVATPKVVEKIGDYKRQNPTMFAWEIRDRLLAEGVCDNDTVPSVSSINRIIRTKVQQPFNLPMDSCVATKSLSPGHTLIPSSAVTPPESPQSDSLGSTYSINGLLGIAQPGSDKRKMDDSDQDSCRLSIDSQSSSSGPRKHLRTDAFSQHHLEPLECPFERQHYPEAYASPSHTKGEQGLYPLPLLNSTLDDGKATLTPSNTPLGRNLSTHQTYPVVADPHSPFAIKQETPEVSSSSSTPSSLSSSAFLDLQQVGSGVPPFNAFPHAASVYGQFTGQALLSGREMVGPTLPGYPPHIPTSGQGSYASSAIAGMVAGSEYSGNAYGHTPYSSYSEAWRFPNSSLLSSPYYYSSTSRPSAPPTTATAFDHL
# [9] = Luminescence Cell-Based Dose Retest to Confirm Inhibitors of Cancer Stem Cells. [Related pubchem assays (depositor defined):AID2717, AID2721]; type: functional; settings: Homo sapiens
# [10] = intracellular Trypanosoma cruzi inhibitors in host cells – cell-based, plate reader, cherry-pick samples, set 3, dose response (AID 651818); type: functional;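 note: compounds incubated with infected cells for about four days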
# [11] = activation of miR-122 Renilla sensor silencing – cell-based, Huh7 psiCHECK-miR122, Renilla luciferase, cherry-picked, dose response (AID 651956); type: functional;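 note: huh7 hepatoma cells stably carrying a psiCHECK-2 miR-122 sensor plasmid; renilla luciferase signal reporting endogenous miR-122 activity after 48 h compound exposure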
# [12] = biological target: T3, Adenosylmethionine-8-amino-7-oxononanoate aminotransferase (Mycobacterium tuberculosis, UniProt P9WQ81); test: Mycobacterium tuberculosis BioA enzyme inhibitor Measured in Biochemical System Using Plate Reader - 2163-02_Inhibitor_Dose_CherryPick_Activity.; type: functional, Mycobacterium tuberculosis UT205
# T3 sequence (P9WQ81 whole entry): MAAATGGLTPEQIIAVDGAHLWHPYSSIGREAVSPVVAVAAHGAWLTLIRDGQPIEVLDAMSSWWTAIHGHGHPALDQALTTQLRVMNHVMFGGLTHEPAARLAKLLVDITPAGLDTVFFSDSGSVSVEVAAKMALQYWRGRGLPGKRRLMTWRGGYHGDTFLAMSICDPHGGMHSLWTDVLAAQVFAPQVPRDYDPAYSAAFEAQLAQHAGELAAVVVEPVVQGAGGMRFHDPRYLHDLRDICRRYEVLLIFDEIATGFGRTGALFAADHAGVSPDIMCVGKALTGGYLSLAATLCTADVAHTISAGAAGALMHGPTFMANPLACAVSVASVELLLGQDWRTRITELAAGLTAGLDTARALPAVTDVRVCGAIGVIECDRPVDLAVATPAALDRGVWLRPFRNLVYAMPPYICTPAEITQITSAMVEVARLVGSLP
# [13] = blockade of melanocortin 4 receptor signaling – cell-based, plate reader, cherry pick, counter-screen for LGR2 antagonist project, dose response (AID 743444); type: functional;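 note: transfected HEK 293 cells stimulated with alpha-MSH peptide; potency of inhibitors of the alpha-MSH evoked signal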
# [14] = A549 cell cytotoxicity, dose response, cytotoxicity control, plate reader, cherry-pick, antagonist series (AID 743412); type: functional, cell-based
# [15] = blockers of bursicon-stimulated LGR2 cAMP reporter – cell-based, HEK293, CRE-luciferase reporter, cherry pick, set 2, dose response (AID 743343); type: functional;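 note: transfected cells were stimulated with diluted bursicon conditioned medium after compound addition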
# [16] = biological target: T4, Mitochondrial peptide methionine sulfoxide reductase (Bos taurus, UniProt P54149); type: functional;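 note: absorbance read-out, biochemical high-throughput dose-response screen for MsrA inhibitors, confirmatory; recombinant bovine MsrA coupled to E. coli TrxB with NADPH and selenocystamine; potency is for inhibitors of MsrA activity on DMSO substrate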
# T4 sequence (P54149 whole entry): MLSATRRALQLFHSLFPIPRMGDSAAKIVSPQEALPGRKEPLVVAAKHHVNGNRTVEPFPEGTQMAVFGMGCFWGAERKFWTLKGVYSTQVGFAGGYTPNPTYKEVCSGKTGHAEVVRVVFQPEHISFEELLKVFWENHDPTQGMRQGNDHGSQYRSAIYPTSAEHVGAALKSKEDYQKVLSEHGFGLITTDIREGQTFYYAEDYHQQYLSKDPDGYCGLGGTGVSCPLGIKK
# Protein skinhead-1 = biological target: T5, Protein skinhead-1 (Caenorhabditis elegans, UniProt P34707); type: functional
# T5 sequence (P34707 whole entry): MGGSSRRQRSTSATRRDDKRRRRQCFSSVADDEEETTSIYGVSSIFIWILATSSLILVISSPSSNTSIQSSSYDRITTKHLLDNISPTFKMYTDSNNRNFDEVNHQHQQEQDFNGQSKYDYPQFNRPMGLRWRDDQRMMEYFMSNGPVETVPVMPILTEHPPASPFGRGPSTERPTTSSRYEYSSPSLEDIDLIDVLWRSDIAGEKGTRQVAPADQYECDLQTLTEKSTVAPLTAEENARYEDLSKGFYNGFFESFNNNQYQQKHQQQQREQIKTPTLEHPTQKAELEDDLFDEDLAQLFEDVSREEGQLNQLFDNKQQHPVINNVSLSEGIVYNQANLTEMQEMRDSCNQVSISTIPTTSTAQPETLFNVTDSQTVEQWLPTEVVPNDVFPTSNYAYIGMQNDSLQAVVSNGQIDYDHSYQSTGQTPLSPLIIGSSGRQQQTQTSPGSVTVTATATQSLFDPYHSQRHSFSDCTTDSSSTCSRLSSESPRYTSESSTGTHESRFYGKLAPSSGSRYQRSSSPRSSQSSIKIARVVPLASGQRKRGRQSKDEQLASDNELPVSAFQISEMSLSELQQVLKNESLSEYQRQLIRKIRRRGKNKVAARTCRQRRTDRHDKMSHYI
# [17] = general mammalian cell viability loss – inhibitor set, cherry-pick, set 2, cytotoxicity control for miR-122 modulator project, dose response (AID 720697); type: functional, cell-based
# Caspase-6 = biological target: T6, Caspase-6 (Homo sapiens, UniProt P55212); test: inhibition of CASP6 peptide cleavage – biochemical, VEID-R110 fluorescence, cherry-pick, dose response (AID 720632)
# T6 sequence (P55212 whole entry): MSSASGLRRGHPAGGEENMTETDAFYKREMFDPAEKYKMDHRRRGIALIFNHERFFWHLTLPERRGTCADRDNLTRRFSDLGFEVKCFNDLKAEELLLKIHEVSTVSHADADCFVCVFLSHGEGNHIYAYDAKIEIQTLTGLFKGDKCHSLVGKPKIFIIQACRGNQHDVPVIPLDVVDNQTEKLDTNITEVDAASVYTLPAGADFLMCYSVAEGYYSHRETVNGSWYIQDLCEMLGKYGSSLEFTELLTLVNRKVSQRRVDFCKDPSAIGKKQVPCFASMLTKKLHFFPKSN
# [18] = Counterscreen for inhibitors of Trypanosoma brucei methionyl tRNA synthetase (MetRS): Luminescence-based cell-based high throughput dose response assay to identify compounds that are cytotoxic to Jurkat human T lymphocyte cells.; type: functional
# 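Throughout, for EC50: agonist potency from rise in intracellular calcium fluorescence.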
# Sequence of Nuclear receptor subfamily 5 group A member 2 (O00482 whole entry): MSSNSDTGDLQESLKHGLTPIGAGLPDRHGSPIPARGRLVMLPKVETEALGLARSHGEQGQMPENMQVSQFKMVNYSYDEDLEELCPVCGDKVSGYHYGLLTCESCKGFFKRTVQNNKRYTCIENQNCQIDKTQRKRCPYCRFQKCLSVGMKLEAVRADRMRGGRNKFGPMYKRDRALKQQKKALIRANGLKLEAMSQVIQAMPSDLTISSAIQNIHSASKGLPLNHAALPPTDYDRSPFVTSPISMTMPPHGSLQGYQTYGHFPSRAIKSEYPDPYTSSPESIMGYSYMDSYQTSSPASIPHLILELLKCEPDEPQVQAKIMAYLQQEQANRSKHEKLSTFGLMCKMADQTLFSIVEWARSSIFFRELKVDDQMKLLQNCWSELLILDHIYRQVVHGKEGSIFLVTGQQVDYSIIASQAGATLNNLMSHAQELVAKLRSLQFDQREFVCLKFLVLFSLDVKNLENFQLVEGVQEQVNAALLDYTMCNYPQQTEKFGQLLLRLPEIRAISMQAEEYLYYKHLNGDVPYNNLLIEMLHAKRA
smiles,measurement,setting,value
Cc1no[n+]([O-])c1COc1ccc(/C=N/n2nnnc2N)cc1,IC50,[1],35.9 µM (inactive)
same,IC50,Steroidogenic factor 1,12 µM (inactive)
same,IC50,[2],35.9 µM (inactive)
Cc1cc(OCC(=O)NCC(O)c2ccccc2)c2c(C)cc(=O)oc2c1 (stereo unspecified),IC50,[3],1.26 µM (active)
CN(C(=O)CSc1nc2ccc(Cl)cc2[nH]1)C1CCS(=O)(=O)C1 (stereo unspecified),IC50,[4],64.5 µM (inactive)
same,IC50,[5],21.7 µM (inactive)
CC(=O)c1ccc2c3c(cccc13)C(=O)N(CCc1ccccc1)C2=O,IC50,cells [6],> 29.9 µM (inactive)
same,IC50,[7],> 67.5 µM (inactive)
same,EC50,cells [8],> 29.9 µM (inactive)
C[C@@H]1CN([C@@H](C)CO)C(=O)Cc2cc(NC(=O)Nc3ccc(C(F)(F)F)cc3)ccc2O[C@@H]1CN(C)S(=O)(=O)c1ccc(Cl)cc1,AC50,Paired box protein Pax-8,10.3 µM (active)
same,AC50,[9],1.28 µM (active)
same,AC50,[10],3.51 µM (active)
COc1ccc2oc(=N)c(-c3nnc4n3CCCCC4)cc2c1,IC50,[3],4.68 µM (active)
Cc1cccc(NC(=O)Nc2ccc3c(c2)C(=O)N(C)[C@@H]2CC[C@@H](CC(=O)NCc4ccccc4Cl)O[C@H]2CO3)c1,AC50,[11],3.32 µM (active)
CCN(CC)S(=O)(=O)c1ccc(NC(=O)c2ccc(Cl)nc2)cc1,AC50,[12],6.89 µM (active)
COC(=O)C1C(=O)C=C(Nc2ccc(F)cc2)CC1c1ccc(OC)cc1 (stereo unspecified),AC50,[12],1.01 µM (active)
COc1ccc(-c2cc(C(=O)Nc3cccc(O)c3)no2)cc1,AC50,[13],7.86 µM (active)
same,AC50,[14],> 52 µM (inactive)
same,AC50,[15],9.77 µM (active)
C=C(C)n1c(=O)n(Cc2ccccc2C)c2ccccc21,AC50,[12],1.32 µM (active)
O=C(C1=C(O)C(=O)N(CCCn2ccnc2)C1c1cccc(Br)c1)c1ccco1 (stereo unspecified),IC50,[16],155 µM (inactive)
COc1ccc(CNCCC(c2ccc(OC)cc2)c2ccccc2OC)cc1 (stereo unspecified),IC50,Protein skinhead-1,> 100 µM (inactive)
same,AC50,[17],3.94 µM (active)
CCOc1ccc(NC(=O)COC(=O)C2CCC(=O)N2)c([N+](=O)[O-])c1 (stereo unspecified),IC50,[1],35.8 µM (inactive)
same,IC50,Steroidogenic factor 1,35.8 µM (inactive)
same,IC50,[2],35.8 µM (inactive)
Cn1cnc([N+](=O)[O-])c1S(=O)(=O)Nc1ccccc1,AC50,Caspase-6,9.66 µM (active)
same,IC50,[16],52.8 µM (inactive)
COc1ccc2c(c1)cc(C(=O)N[C@@H](Cc1ccccc1)C(=O)N[C@@H](C)C(=O)O)n2C,IC50,[3],1.29 µM (active)
C[C@H](CO)N1C[C@H](C)[C@H](CN(C)Cc2ccc(C(=O)Nc3ccccc3N)cc2)Oc2c(NS(=O)(=O)c3cccs3)cccc2C1=O,AC50,[10],1.87 µM (active)
OC(c1cccc(Cl)c1)c1nc(-c2ccc3ccccc3c2)c[nH]1 (stereo unspecified),IC50,[4],14.2 µM (inactive)
same,IC50,[5],5.6 µM (active)
same,IC50,[18],83.3 µM (inactive)
Cc1noc(C)c1S(=O)(=O)Nc1ccc2c(c1)C(=O)N([C@H](C)CO)C[C@H](C)[C@H](CN(C)C(=O)Nc1ccc(C(F)(F)F)cc1)O2,AC50,[10],4.97 µM (active)
CCCN(CC(=O)Nc1ccc(C(N)=O)cc1)CC(=O)Nc1ccccc1C,IC50,[1],5.11 µM (active)
same,IC50,Steroidogenic factor 1,2.88 µM (active)
same,IC50,[2],24.9 µM (inactive)
Cc1noc(C)c1NC(=O)N(C)C[C@@H]1Oc2cc(C#CCC3CCCC3)ccc2S(=O)(=O)N([C@@H](C)CO)C[C@@H]1C,AC50,[11],18.9 µM (active)
CN(C(=O)CSc1nc2cc(Cl)ccc2[nH]1)C1CCS(=O)(=O)C1 (stereo unspecified),IC50,[18],83.2 µM (inactive)
COc1ccccc1CCNCc1cc2c(cc1[N+](=O)[O-])OCO2,IC50,cells [6],> 29.9 µM (inactive)
same,EC50,cells [8],> 29.9 µM (inactive)
